Experimental data as given in patent publication US20250333424A1, “ANTIVIRAL COMPOUNDS” (Gilead Sciences, Inc., priority 2024, published 2025).

Test system: monocytic THP1 cells infected with HIV VSV-G pseudotyped GFP-NEF reporter virus
Test: cells
Assay type: cell-based
Details: Human immunodeficiency virus 1, THP-1, 24 h

Work on `Cc1cc(/C=C/C#N)cc(C)c1Oc1nc(NC23CC(C#N)(C2)C3)nc2nc(-c3cnoc3)[nH]c12` [Compound 71, (E)-3-((6-(4-(2-cyanovinyl)-2,6-dimethylphenoxy)-8-(isoxazol-4-yl)-7H-purin-2-yl)amino)bicyclo[1.1.1]pentane-1-carbonitrile] yielded an EC50 of 274 nM.

Compound `Cc1cc(/C=C/C#N)cc(C)c1Oc1nc(NC23CC(C#N)(C2)C3)nc2nc(-c3cncnc3)[nH]c12` [Compound 72, (E)-3-((6-(4-(2-cyanovinyl)-2,6-dimethylphenoxy)-8-(pyrimidin-5-yl)-7H-purin-2-yl)amino)bicyclo[1.1.1]pentane-1-carbonitrile] has an EC50 of 308 nM.

`Cc1cc(/C=C/C#N)cc(C)c1Oc1nc(NC23CC(C#N)(C2)C3)nc2nc(-c3ccno3)[nH]c12` [Compound 73, (E)-3-((6-(4-(2-cyanovinyl)-2,6-dimethylphenoxy)-8-(isoxazol-5-yl)-7H-purin-2-yl)amino)bicyclo[1.1.1]pentane-1-carbonitrile] showed an EC50 of 285 nM.

Compound `Cc1cc(/C=C/C#N)cc(C)c1Oc1nc(NC23CC(C#N)(C2)C3)nc2nn(-c3ccccc3)cc12` [Compound 74, (E)-3-((4-(4-(2-cyanovinyl)-2,6-dimethylphenoxy)-2-phenyl-2H-pyrazolo[3,4-d]pyrimidin-6-yl)amino)bicyclo[1.1.1]pentane-1-carbonitrile] has an EC50 of 162 nM.

Work on `Cc1cc(/C=C/C#N)cc(C)c1Oc1nc(NC23CC(C#N)(C2)C3)nc2c1CCC2(F)F` [Compound 79, (E)-3-((4-(4-(2-cyanovinyl)-2,6-dimethylphenoxy)-7,7-difluoro-6,7-dihydro-5H-cyclopenta[d]pyrimidin-2-yl)amino)bicyclo[1.1.1]pentane-1-carbonitrile] yielded an EC50 of 33.2 nM.

In the case of `Cc1cc(/C=C/C#N)cc(C)c1Oc1nc(NC23CC(C#N)(C2)C3)nc2nnn(C)c12` [Compound 81, (E)-3-((7-(4-(2-cyanovinyl)-2,6-dimethylphenoxy)-1-methyl-11H-[1,2,3]triazolo[4,5-d]pyrimidin-5-yl)amino)bicyclo[1.1.1]pentane-1-carbonitrile], the EC50 is reported as 35.6 nM.

Work on `Cc1cc(/C=C/C#N)cc(C)c1Oc1nc(NC23CC(C#N)(C2)C3)nc2nn(C)nc12` [Compound 82, (E)-3-((7-(4-(2-cyanovinyl)-2,6-dimethylphenoxy)-2-methyl-2H-[1,2,3]triazolo[4,5-d]pyrimidin-5-yl)amino)bicyclo[1.1.1]pentane-1-carbonitrile] yielded an EC50 of 79 nM.

In the case of `Cc1cc(/C=C/C#N)cc(C)c1Oc1nc(NC23CC(C#N)(C2)C3)nc2nn(CC(F)F)c(C)c12` [Compound 83, (E)-3-((4-(4-(2-cyanovinyl)-2,6-dimethylphenoxy)-2-(2,2-difluoroethyl)-3-methyl-2H-pyrazolo[3,4-d]pyrimidin-6-yl)amino)bicyclo[11.1.1]pentane-1-carbonitrile], the EC50 is reported as 162 nM.

Work on `Cc1cc(/C=C/C#N)cc(C)c1Oc1nc(NC23CC(C#N)(C2)C3)nc2nn(CC(F)(F)F)c(C)c12` [Compound 84, (E)-3-((4-(4-(2-cyanovinyl)-2,6-dimethylphenoxy)-3-methyl-2-(2,2,2-trifluoroethyl)-2H-pyrazolo[3,4-d]pyrimidin-6-yl)amino)bicyclo[1.1.1]pentane-1-carbonitrile] yielded an EC50 of 370 nM.

In the case of `Cc1cc(/C=C/C#N)cc(C)c1Oc1nc(NC23CC(C#N)(C2)C3)nc2nn(C)c(C)c12` [Compound 86, (E)-3-((4-(4-(2-cyanovinyl)-2,6-dimethylphenoxy)-2,3-dimethyl-2H-pyrazolo[3,4-d]pyrimidin-6-yl)amino)bicyclo[1.1.1]pentane-1-carbonitrile], the EC50 is reported as 18.3 nM.

With `Cc1cc(/C=C/C#N)cc(C)c1Oc1nc(NC23CC(C#N)(C2)C3)nc2nn(C)c(I)c12` [Compound 87, (E)-3-((4-(4-(2-cyanovinyl)-2,6-dimethylphenoxy)-3-iodo-2-methyl-2H-pyrazolo[3,4-d]pyrimidin-6-yl)amino)bicyclo[1.1.1]pentane-1-carbonitrile] the EC50 was 25.1 nM.

`C=Cc1c2c(Oc3c(C)cc(/C=C/C#N)cc3C)nc(NC34CC(C#N)(C3)C4)nc2nn1C` [Compound 88, (E)-3-((4-(4-(2-cyanovinyl)-2,6-dimethylphenoxy)-2-methyl-3-vinyl-2H-pyrazolo[3,4-d]pyrimidin-6-yl)amino)bicyclo[1.1.1]pentane-1-carbonitrile] gave an EC50 of 23.4 nM.

In the case of `Cc1cc(/C=C/C#N)cc(C)c1Oc1nc(NC23CC(C#N)(C2)C3)nc2[nH]nc(Br)c12` [Compound 90, (E)-3-((3-bromo-4-(4-(2-cyanovinyl)-2,6-dimethylphenoxy)-1H-pyrazolo[3,4-d]pyrimidin-6-yl)amino)bicyclo[1.1.1]pentane-1-carbonitrile], the EC50 is reported as 25.4 nM.

`Cc1cc(/C=C/C#N)cc(C)c1Oc1nc(NC23CC(C#N)(C2)C3)nc2[nH]nc(C(F)F)c12` [Compound 91, (E)-3-((4-(4-(2-cyanovinyl)-2,6-dimethylphenoxy)-3-(difluoromethyl)-1H-pyrazolo[3,4-d]pyrimidin-6-yl)amino)bicyclo[1.1.1]pentane-1-carbonitrile] was tested, and the EC50 was 42.3 nM.

`Cc1cc(/C=C/C#N)cc(C)c1Oc1nc(NC23CC(C#N)(C2)C3)nc2nn(C)c(C(F)F)c12` [Compound 92, (E)-3-((4-(4-(2-cyanovinyl)-2,6-dimethylphenoxy)-3-(difluoromethyl)-2-methyl-2H-pyrazolo[3,4-d]pyrimidin-6-yl)amino)bicyclo[1.1.1]pentane-1-carbonitrile] was tested, and the EC50 was 26.3 nM.

`Cc1cc(/C=C/C#N)cc(C)c1Oc1nc(NC23CC(C#N)(C2)C3)nc2c1c(C(F)F)nn2C` [Compound 93, (E)-3-((4-(4-(2-cyanovinyl)-2,6-dimethylphenoxy)-3-(difluoromethyl)-1-methyl-1H-pyrazolo[3,4-d]pyrimidin-6-yl)amino)bicyclo[1.1.1]pentane-1-carbonitrile] gave an EC50 of 37.7 nM.

`Cc1cc(/C=C/C#N)cc(C)c1Oc1nc(NC23CC(C#N)(C2)C3)nc2[nH]nc(Cl)c12` [Compound 94, (E)-3-((3-chloro-4-(4-(2-cyanovinyl)-2,6-dimethylphenoxy)-1H-pyrazolo[3,4-d]pyrimidin-6-yl)amino)bicyclo[1.1.1]pentane-1-carbonitrile] gave an EC50 of 72.5 nM.

In the case of `CNC(=O)Cn1nc2nc(NC34CC(C#N)(C3)C4)nc(Oc3c(C)cc(/C=C/C#N)cc3C)c2c1C` [Compound 98, (E)-2-(6-((3-cyanobicyclo[1.1.1]pentan-1-yl)amino)-4-(4-(2-cyanovinyl)-2,6-dimethylphenoxy)-3-methyl-2H-214-pyrazolo[3,4-d]pyrimidin-2-yl)-N-methylacetamide], the EC50 is reported as 94.3 nM.

`CNC(=O)Cn1nc(C)c2c(Oc3c(C)cc(/C=C/C#N)cc3C)nc(NC34CC(C#N)(C3)C4)nc21` [Compound 99, (E)-2-(6-((3-cyanobicyclo[1.1.1]pentan-1-yl)amino)-4-(4-(2-cyanovinyl)-2,6-dimethylphenoxy)-3-methyl-1H-pyrazolo[3,4-d]pyrimidin-1-yl)-N-methylacetamide] was tested, and the EC50 was 37.1 nM.

For `Cc1cc(/C=C/C#N)cc(C)c1Oc1nc(NC23CC(C#N)(C2)C3)nc2c1c(C)nn2CC#N` [Compound 100, (E)-3-((1-(cyanomethyl)-4-(4-(2-cyanovinyl)-2,6-dimethylphenoxy)-3-methyl-11H-pyrazolo[3,4-d]pyrimidin-6-yl)amino)bicyclo[1.1.1]pentane-1-carbonitrile], the EC50 was 36.1 nM.

Work on `CNC(=O)CCn1nc(C)c2c(Oc3c(C)cc(/C=C/C#N)cc3C)nc(NC34CC(C#N)(C3)C4)nc21` [Compound 101, (E)-3-(6-((3-cyanobicyclo[1.1.1]pentan-1-yl)amino)-4-(4-(2-cyanovinyl)-2,6-dimethylphenoxy)-3-methyl-1H-pyrazolo[3,4-d]pyrimidin-1-yl)-N-methylpropanamide] yielded an EC50 of 59.6 nM.

`Cc1cc(/C=C/C#N)cc(C)c1Oc1nc(NC23CC(C#N)(C2)C3)nc2nn(CCC(F)F)c(C)c12` [Compound 102, (E)-3-((4-(4-(2-cyanovinyl)-2,6-dimethylphenoxy)-2-(3,3-difluoropropyl)-3-methyl-2H-pyrazolo[3,4-d]pyrimidin-6-yl)amino)bicyclo[1.1.1]pentane-1-carbonitrile] was tested, and the EC50 was 22.4 nM.

`Cc1cc(/C=C/C#N)cc(C)c1Oc1nc(NC23CC(C#N)(C2)C3)nc2c1c(C)nn2CCC(F)F` [Compound 103, (E)-3-((4-(4-(2-cyanovinyl)-2,6-dimethylphenoxy)-1-(3,3-difluoropropyl)-3-methyl-1H-pyrazolo[3,4-d]pyrimidin-6-yl)amino)bicyclo[1.1.1]pentane-1-carbonitrile] gave an EC50 of 221 nM.

For `Cc1cc(/C=C/C#N)cc(C)c1Oc1nc(NC23CC(C#N)(C2)C3)nc2[nH]nc(C3CC3)c12` [Compound 104, (E)-3-((4-(4-(2-cyanovinyl)-2,6-dimethylphenoxy)-3-cyclopropyl-1H-pyrazolo[3,4-d]pyrimidin-6-yl)amino)bicyclo[1.1.1]pentane-1-carbonitrile], the EC50 was 141 nM.

For `C=Cc1n[nH]c2nc(NC34CC(C#N)(C3)C4)nc(Oc3c(C)cc(/C=C/C#N)cc3C)c12` [Compound 105, (E)-3-((4-(4-(2-cyanovinyl)-2,6-dimethylphenoxy)-3-vinyl-1H-pyrazolo[3,4-d]pyrimidin-6-yl)amino)bicyclo[1.1.1]pentane-1-carbonitrile], the EC50 was 182 nM.

`Cc1cc(/C=C/C#N)cc(C)c1Oc1nc(NC23CC(C#N)(C2)C3)nc2[nH]nc(-c3ccn(C)n3)c12` [Compound 107, (E)-3-((4-(4-(2-cyanovinyl)-2,6-dimethylphenoxy)-3-(1-methyl-1H-pyrazol-3-yl)-1H-pyrazolo[3,4-d]pyrimidin-6-yl)amino)bicyclo[1.1.1]pentane-1-carbonitrile] showed an EC50 of 443 nM.

For `Cc1cc(/C=C/C#N)cc(C)c1Oc1nc(NC23CC(C#N)(C2)C3)nc2cn(C(C)C)nc12` [Compound 108], the EC50 was 611 nM.

Compound `COc1n[nH]c2nc(NC34CC(C#N)(C3)C4)nc(Oc3c(C)cc(/C=C/C#N)cc3C)c12` [Compound 109, (E)-3-((4-(4-(2-cyanovinyl)-2,6-dimethylphenoxy)-3-methoxy-1H-pyrazolo[3,4-d]pyrimidin-6-yl)amino)bicyclo[1.1.1]pentane-1-carbonitrile] has an EC50 of 200 nM.

With `Cc1cc(/C=C/C#N)cc(C)c1Oc1nc(NC23CC(C#N)(C2)C3)nc2[nH]nc(O)c12` [Compound 110, (E)-3-((4-(4-(2-cyanovinyl)-2,6-dimethylphenoxy)-3-hydroxy-1H-pyrazolo[3,4-d]pyrimidin-6-yl)amino)bicyclo[1.1.1]pentane-1-carbonitrile] the EC50 was > 1000 nM.
